Test results taken from patent US20060293264A1, “STAT3 decoy oligonucleotides and uses therefor” (priority 2004, published 2006).

Key:
[1] = molecular target: T1, STAT1 (Homo sapiens, UniProt P42224); test: EMSA of STAT1 binding to the STAT3 decoy, PCI-15B nuclear extracts; conditions: supershift
T1 construct: Nuclear protein extracts of PCI-15B cells, prepared according to standard methods, were used for the EMSA; endogenous in cells; host or cells: PCI-15B cells (nuclear extract)
T1 sequence (P42224 2-750 limits assumed): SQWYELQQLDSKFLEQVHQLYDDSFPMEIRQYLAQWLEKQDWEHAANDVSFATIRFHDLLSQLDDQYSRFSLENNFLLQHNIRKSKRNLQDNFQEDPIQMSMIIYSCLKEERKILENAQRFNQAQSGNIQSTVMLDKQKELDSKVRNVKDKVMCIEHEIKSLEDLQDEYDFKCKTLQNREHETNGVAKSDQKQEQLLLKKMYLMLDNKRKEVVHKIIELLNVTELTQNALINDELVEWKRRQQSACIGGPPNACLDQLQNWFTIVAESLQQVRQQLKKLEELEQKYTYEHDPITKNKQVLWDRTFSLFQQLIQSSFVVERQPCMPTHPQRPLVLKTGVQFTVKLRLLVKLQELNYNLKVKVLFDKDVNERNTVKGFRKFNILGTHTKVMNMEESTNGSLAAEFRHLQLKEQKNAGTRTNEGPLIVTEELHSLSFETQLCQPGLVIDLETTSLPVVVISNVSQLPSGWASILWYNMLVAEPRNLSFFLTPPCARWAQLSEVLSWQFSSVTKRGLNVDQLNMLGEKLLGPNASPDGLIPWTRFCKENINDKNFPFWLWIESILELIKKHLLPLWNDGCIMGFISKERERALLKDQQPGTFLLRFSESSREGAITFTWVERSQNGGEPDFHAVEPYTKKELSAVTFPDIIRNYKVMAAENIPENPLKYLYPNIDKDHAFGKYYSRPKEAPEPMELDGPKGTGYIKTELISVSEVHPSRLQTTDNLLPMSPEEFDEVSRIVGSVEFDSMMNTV
Experimental: FIG. 10 depicts binding of STAT 1 to the STAT3 decoy in an electrophoretic mobility shift assay (EMSA). Nuclear protein extracts of PCI-15B cells, prepared according to standard methods, were used for the EMSA. The specificity of STAT1 or STAT3 binding to the STAT3 decoy was determined by supershifting with STAT1- or STAT3-specific antibodies, or both. The experiment has been repeated more than 3 times.

[2] = tested on: SCCHN cells (1483); test: Annexin 5-Cy3 apoptosis assay in SCCHN cells; format: cell-based; conditions: 1483 cells; 25 μM, 6 days; p<0.0001
Experimental: SCCHN cells (1483) were treated with mutant control decoy (25 μM), or STAT3 decoy alone (25 μM), or cisplatin alone (20 μM), or STAT3 decoy (25 μM) plus cisplatin (20 μM). Mutant control decoy or STAT3 decoy was always applied for a total of 6 days, and cisplatin was added for the last 24 hr before harvesting. The effects of the STAT3 decoy plus cisplatin on apoptosis was assessed by an Annexin 5-Cy3 apoptosis assay (BioVision Research Products, 2455-D Old Middlefield Way, Mountain View, Calif. 94043 USA) and Bcl-xL and Cyclin D1 were examined using immunoblotting as described below.
Following treatment with STAT3 decoy plus cisplatin, SCCHN cells were detached by trypsinization, counted and pelleted (1000 r.p.m. for 5 min). Cell pellets were washed once with PBS (pH 7.4) and resuspended in 100 μl Annexin V binding buffer (10 mM HEPES, pH 7.4, 140 mM NaCl, 2.5 mM CaCl2). […] The membranes of apoptotic cells are stained a bright orange color when analyzed with a fluorescence microscope. The ratio (percentage) of apoptotic to total cells (apoptotic plus non-apoptotic cells) was calculated for each high power field. For each treatment, 5-10 high power fields of view were quantitated on each section.

[3] = tested on: SCCHN xenografts (1483 cells); test: In vivo apoptosis determination by TUNEL in harvested xenografts; parameters: species or system athymic nude mice; conditions: xenografts harvested after 25 treatments; p=0.00038
Experimental: In vivo apoptosis determinations. Detection and quantitation of apoptosis was performed by the TUNEL reaction, using the In Situ Cell Death Detection Kit, POD (Roche Diagnostics GmbH, Roche Applied Science, Sandhofer Strasse 116, D-68305 Mannheim, Germany). Cryostat sections were fixed in 4% paraformaldehyde in PBS for 30 min. After washing with PBS for 30 min, the sections were incubated in permeabilization solution (0.1% Triton X-100, 0.1% sodium citrate) for 2 min on ice. The sections were washed twice with PBS before the samples were incubated for 60 min at 37° C. with TUNEL reaction mixture to label DNA strand breaks with Fluorescein-dUTP. After washing three times with PBS, the samples were incubated with Converter-POD for 30 min at 37° C., washed again with PBS, and finally exposed to 0.025% 3,3′-diaminobenzidine (DAB)/0.01% H2O2 in Tris-HCl buffer (pH 7.4) for 10 min. The number of apoptotic cells per high-power field (HPF) was counted. For each treatment, five samples were evaluated, and 5-10 fields of view were quantified on each section.
In vivo tumor xenograft studies. Female athymic nude mice nu/nu (4-6 weeks old; 20±2 g; Harlan-Sprague-Dawley) were implanted with 1×10^6 1483 cells into the right and left flank with a 26-gauge needle/1 ml tuberculin syringe, resulting in two tumors per mouse. […]

[4] = tested on: SCCHN cells; test: Incorporation of decoy into SCCHN cells, fluorescence labeled flow cytometry; format: cell-based; conditions: SCCHN cells in vitro, previously assessed

## STAT3 decoy (sense CATTTCCCGTAAATC; antisense GATTTACGGGAAATG; phosphorothioate modified, further chemistry not given here; listed as Homo sapiens)
[1]
  binding to STAT1: able to bind
[2]
  apoptosis compared with mutant control decoy: increased
[3]
  increase in apoptosis (TUNEL) compared with mutant control decoy: 3.25 fold
[4]
  cells in which decoy was detected: > 90%
